The record followed here is US11999727B2 (Tango Therapeutics, Inc., priority 2020, dated 2024).

In assay [1] the target is T1, PRMT5 (Homo sapiens, UniProt O14744).
T1 construct: purchased Viva (custom protein)
In words: PRMT5 biochemical IC50 assay with no cofactor. As to conditions: PRMT5, no cofactor. The text has this:
Table 1 indicates IC50 values (μM) against PRMT5 for exemplary compounds in the presence of SAM as cofactor, with no cofactor, and with MTA as cofactor, respectively (columns 4-6). […] Ki values can be calculated from the IC50 values as described in the Examples section. As detailed in the Examples section, for the assay performed in the presence of SAM, IC50=Ki×1.5 (Ki=IC50/1.5).

Assay [2] concerns the target T1, PRMT5. In words: PRMT5 biochemical IC50 assay with SAM as cofactor. As to conditions: PRMT5, SAM as cofactor; read-out: SAM IC50.
For assay [3], the system named is HAP1 MTAP-intact cell line. In words: SDMA in-cell western assay, HAP1 MTAP-intact. The class given is cell-based. As to conditions: Homo sapiens, HAP1, SDMA in-cell western, HAP1 MTAP-intact; read-out: MTAP HAP1 intact IC50. The method, boiled down:
(§1)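 Compounds were tested in HAP1 cells differing only in MTAP status (endogenous expression versus null). Cellular SDMA levels were then measured by in-cell western, giving an IC50 in each background.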

The test system of assay [4] is HAP1 MTAP-deleted cell line. In words: Viability assay, MTAP-deleted cell line. The class given is cell-based. As to conditions: read-out: HAP1 MTAP deleted viability. The text has this:
Table 1 additionally indicates IC50 values in a viability assay for the MTAP-deleted cell line (column 10), indicating the effect of treatment with compound on cell survival.

The target in assay [5] is T1, PRMT5. Nature of the assay: PRMT5 biochemical IC50 assay with MTA as cofactor. Conditions: PRMT5, MTA as cofactor; read-out: MTA IC50.
In assay [6] the test system is HAP1 MTAP-deleted cell line. Nature of the assay: SDMA in-cell western assay, HAP1 MTAP-deleted. In kind it is cell-based. As to conditions: for pIC50: Homo sapiens, HAP1, SDMA in-cell western, HAP1 MTAP-deleted; for MTAP intact/deleted ratio: SDMA in-cell western. The method, boiled down:
as §1

[7] abbreviates: Homo sapiens, HAP1, viability assay, MTAP-deleted cell line.
The mark [8] stands for this setting: read-out: HAP1 MTAP deleted IC50.
[9] abbreviates: IC50 ratio HAP1 MTAP-intact / HAP1 MTAP-deleted.
[10] abbreviates: read-out: HAP 1 MTAP deleted IC50.
[11] abbreviates: Homo sapiens, HAP1, viability assay, HAP1 MTAP-deleted.
Setting [12] is: Homo sapiens, HAP1, viability IC50, MTAP-deleted cell line.
The mark [13] stands for this setting: read-out: No Cofactor/ rel IC50.

pIC50: −log10 of the molar value.

T1 sequence (O14744 whole entry): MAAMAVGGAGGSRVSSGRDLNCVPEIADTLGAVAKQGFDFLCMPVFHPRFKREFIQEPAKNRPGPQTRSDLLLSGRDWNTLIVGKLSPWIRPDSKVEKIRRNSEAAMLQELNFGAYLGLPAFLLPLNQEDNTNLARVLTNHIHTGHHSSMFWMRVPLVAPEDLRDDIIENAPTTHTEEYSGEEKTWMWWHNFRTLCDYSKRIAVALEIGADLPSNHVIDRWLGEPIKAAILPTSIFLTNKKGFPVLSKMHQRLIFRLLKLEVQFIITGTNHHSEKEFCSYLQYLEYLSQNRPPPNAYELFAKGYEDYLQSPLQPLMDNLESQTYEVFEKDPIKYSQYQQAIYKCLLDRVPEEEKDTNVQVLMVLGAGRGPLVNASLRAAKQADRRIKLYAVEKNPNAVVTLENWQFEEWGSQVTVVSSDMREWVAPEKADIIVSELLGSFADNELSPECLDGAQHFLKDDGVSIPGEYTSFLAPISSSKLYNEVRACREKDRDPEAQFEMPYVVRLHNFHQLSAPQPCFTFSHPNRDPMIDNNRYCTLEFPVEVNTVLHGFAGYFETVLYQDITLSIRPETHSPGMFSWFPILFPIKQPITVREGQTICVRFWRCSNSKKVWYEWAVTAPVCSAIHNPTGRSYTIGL
T1 sequence (Q9BQA1 whole entry partner): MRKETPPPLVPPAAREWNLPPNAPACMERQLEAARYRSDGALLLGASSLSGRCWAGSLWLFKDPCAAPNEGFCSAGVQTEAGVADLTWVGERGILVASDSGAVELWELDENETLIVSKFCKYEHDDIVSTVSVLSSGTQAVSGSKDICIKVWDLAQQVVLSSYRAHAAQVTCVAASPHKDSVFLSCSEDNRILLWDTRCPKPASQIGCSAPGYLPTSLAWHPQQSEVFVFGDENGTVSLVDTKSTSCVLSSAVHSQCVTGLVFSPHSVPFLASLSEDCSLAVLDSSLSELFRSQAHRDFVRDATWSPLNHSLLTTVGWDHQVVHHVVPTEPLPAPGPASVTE

As to `C[C@@H]1CC[C@@H]([C@H]2CC[C@@H](O)CC2)N(C(=O)C(=O)Nc2cncc(C(N)=O)c2)C1` (single isomer, unassigned) [Compound 393], the pIC50 on PRMT5 [1] (read-out: No Cofactor/rel IC50) is below 6.30; at PRMT5 [2], 6.30 to 7.30; in assay [3] it was below 6.00; in assay [4] (setting [7]) it was below 5.00; at PRMT5 [5], 6.30 to 7.30; in assay [6] (setting [8]), below 6.00. The MTAP intact/deleted ratio result in assay [6] (setting [9]) was “B (an IC50 ratio greater than or equal to 3 fold but lower than 10 fold)”.

Regarding `Cc1cc(NC(=O)C(=O)N2C[C@@H](C)CC[C@@H]2c2cn[nH]c2)cnc1N` (single isomer, unassigned) [Compound 941], the pIC50 at PRMT5 [1] (read-out: No Cofactor/rel IC50) was above 7.30; on PRMT5 [2], 6.30 to 7.30; in assay [3], 6.00 to 7.00; in assay [4] (setting [7]), 5.00 to 6.00; on PRMT5 [5], above 7.30; in assay [6] (setting [10]) it was above 7.00. Besides, the MTAP intact/deleted ratio entry in assay [6] (setting [9]) is “B (an IC50 ratio greater than or equal to 3 fold but lower than 10 fold)”.

Regarding `Cc1ncc(NC(=O)C(=O)N2C[C@H](C)CC[C@H]2c2ccc3c(c2)CCC(=O)N3)cc1Cl` (single isomer, unassigned) [Compound 726], the pIC50 at PRMT5 [1] (read-out: No Cofactor/rel IC50) was above 7.30; at PRMT5 [2] it was 6.30 to 7.30; in assay [3], below 6.00; in assay [4] (setting [11]) it was above 6.00; on PRMT5 [5] it was above 7.30; in assay [6] (setting [8]), above 7.00. Moreover, in assay [6] (setting [9]), the MTAP intact/deleted ratio result is reported as “A (an IC50 ratio greater than or equal to 10 fold)”.

Consider `CC(=O)Nc1ccc([C@H]2CC[C@H](C)CN2C(=O)C(=O)Nc2cnc(N)c(C)c2)cc1` (single isomer, unassigned) [Compound 523], for which the pIC50 is below 6.30 at PRMT5 [1] (read-out: No Cofactor/rel IC50); below 6.30 on PRMT5 [2]; below 6.00 in assay [3]; below 5.00 in assay [4] (setting [7]); below 6.30 on PRMT5 [5]; below 6.00 in assay [6] (setting [8]). Also, in assay [6] (setting [9]), the MTAP intact/deleted ratio result is on record as “C (an IC50 ratio of less than 3 fold)”.

For `CC(=O)N[C@H]1C[C@H]([C@H]2CC[C@H](C)CN2C(=O)C(=O)Nc2cnc(N)c(C)c2)C1` (single isomer, unassigned) [Compound 563], the pIC50 on PRMT5 [1] (read-out: No Cofactor/rel IC50) is below 6.30; on PRMT5 [2], below 6.30; in assay [3], below 6.00; in assay [4] (setting [12]) it was below 5.00; on PRMT5 [5] it was below 6.30; in assay [6] (setting [10]), below 6.00. In assay [6] (setting [9]), the MTAP intact/deleted ratio entry was “C (an IC50 ratio of less than 3 fold)”.

As to `Cc1ccc([C@@H]2CC[C@@H](C)CN2C(=O)C(=O)Nc2cncc(C(N)=O)c2)cc1F` (racemic) [Compound 162, rac-5-{2-[(2R,5S)-2-(3-Fluoro-4-methylphenyl)-5-methylpiperidin-1-yl]-2-oxoacetamido}pyridine-3-carboxamide], the pIC50 at PRMT5 [1] (setting [13]) is 6.30 to 7.30; on PRMT5 [2] it was 6.30 to 7.30; in assay [3] it was below 6.00; in assay [4] (setting [7]), 5.00 to 6.00; on PRMT5 [5], above 7.30; in assay [6] (setting [10]) it was above 7.00. The “MTAP intact/deleted ratio” value in assay [6] (setting [9]) was “A (an IC50 ratio greater than or equal to 10 fold)”.

As to `Cc1cc(NC(=O)C(=O)N2C[C@H](C)CC[C@H]2c2ccc(-c3cn[nH]c3)cc2)cnc1N` (single isomer, unassigned) [Compound 628], the pIC50 on PRMT5 [1] (read-out: No Cofactor/rel IC50) is above 7.30; on PRMT5 [2] it was 6.30 to 7.30; in assay [3], 6.00 to 7.00; in assay [4] (setting [12]) it was above 6.00; on PRMT5 [5], 6.30 to 7.30; in assay [6] (setting [10]) it was above 7.00. The MTAP intact/deleted ratio entry in assay [6] (setting [9]) is on record as “A (an IC50 ratio greater than or equal to 10 fold)”.

On to `Cc1cc(NC(=O)C(=O)N2C[C@@H](C)CC(F)(F)[C@@H]2c2ccc(F)cc2)cnc1N` (racemic) [Compound 871, N-(6-amino-5-methyl-3-pyridyl)-2-[(2S,5S)-3,3-difluoro-2-(4-fluorophenyl)-5-methyl-1-piperidyl]-2-oxo-acetamide], for which the pIC50 at PRMT5 [1] (read-out: No Cofactor/rel IC50) is 6.30 to 7.30; at PRMT5 [2], 6.30 to 7.30; in assay [3], 6.00 to 7.00; in assay [4] (setting [11]), 5.00 to 6.00; at PRMT5 [5], above 7.30; in assay [6] (setting [8]), above 7.00. The MTAP intact/deleted ratio entry in assay [6] (setting [9]) was “B (an IC50 ratio greater than or equal to 3 fold but lower than 10 fold)”.

For the molecule `Cc1cc(NC(=O)C(=O)N2C[C@H](C)CC[C@H]2C2CC3(CCC3)C2)cnc1N` (racemic) [Compound 692, N-(6-amino-5-methylpyridin-3-yl)-2-(5-methyl-2-(spiro[3.3]heptan-2-yl)piperidin-1-yl)-2-oxoacetamide], the pIC50 on PRMT5 [1] (read-out: No Cofactor/rel IC50) was below 6.30; on PRMT5 [2], below 6.30; in assay [3], below 6.00; in assay [4] (setting [12]), below 5.00; on PRMT5 [5] it was 6.30 to 7.30; in assay [6] (setting [10]), below 6.00. Also, the MTAP intact/deleted ratio entry in assay [6] (setting [9]) was “C (an IC50 ratio of less than 3 fold)”.

For `C[C@H]1CC[C@H](c2ccccn2)N(C(=O)C(=O)Nc2cncc(C(N)=O)c2)C1` (single isomer, unassigned) [Compound 590], the pIC50 was 6.30 to 7.30 at PRMT5 [1] (read-out: No Cofactor/rel IC50); above 7.30 at PRMT5 [2]; below 6.00 in assay [3]; 5.00 to 6.00 in assay [4] (setting [12]); above 7.30 at PRMT5 [5]; above 7.00 in assay [6] (setting [10]). In addition, in assay [6] (setting [9]), the MTAP intact/deleted ratio result is “A (an IC50 ratio greater than or equal to 10 fold)”.

In the case of `CCc1nc2cc([C@@H]3CC[C@@H](C)CN3C(=O)C(=O)Nc3cnc(N)c(C)c3)ccc2s1` (racemic) [Compound 1184, N-(6-amino-5-methylpyridin-3-yl)-2-(2-(2-ethylbenzo[d]thiazol-5-yl)-5-methylpiperidin-1-yl)-2-oxoacetamide], the pIC50 was 6.30 to 7.30 on PRMT5 [1] (read-out: No Cofactor/rel IC50); 6.30 to 7.30 at PRMT5 [2]; 6.00 to 7.00 in assay [3]; above 6.00 in assay [4] (setting [7]); 6.30 to 7.30 at PRMT5 [5]; above 7.00 in assay [6] (setting [8]). Further, in assay [6] (IC50 ratio HAP1 MTAP-intact vs HAP1 MTAP-deleted), the MTAP intact/deleted ratio result is listed as “A (an IC50 ratio greater than or equal to 10 fold)”.

Consider `Cc1cc(NC(=O)C(=O)N2C[C@@H](C)CC[C@@H]2c2ccc3c(c2)CCC(=O)N3)cnc1C` (single isomer, unassigned) [Compound 619], for which the pIC50 is below 6.30 at PRMT5 [1] (read-out: No Cofactor/rel IC50); below 6.30 on PRMT5 [2]; below 6.00 in assay [3]; 5.00 to 6.00 in assay [4] (setting [12]); below 6.30 on PRMT5 [5]; 6.00 to 7.00 in assay [6] (setting [10]). Besides, in assay [6] (setting [9]), the MTAP intact/deleted ratio result is on record as “A (an IC50 ratio greater than or equal to 10 fold)”.

As to `C[C@H]1CC[C@H](c2ccc3sc(CCN(C)C)nc3c2)N(C(=O)C(=O)Nc2cnc(N)c(C3CC3)c2)C1` (single isomer, unassigned) [Compound 1331], the pIC50 is below 6.30 on PRMT5 [1] (setting [13]); below 6.30 at PRMT5 [2]; below 6.00 in assay [3]; 5.00 to 6.00 in assay [4] (Homo sapiens, HAP1, viability, HAP1 MTAP-deleted cell line); below 6.30 at PRMT5 [5]; 6.00 to 7.00 in assay [6] (setting [10]). Moreover, the “MTAP intact/deleted ratio” value in assay [6] (setting [9]) is recorded as “A (an IC50 ratio greater than or equal to 10 fold)”.

For the molecule `Cc1cc(NC(=O)C(=O)N2C[C@@H](C)CC[C@@H]2c2cscn2)cnc1N` (single isomer, unassigned) [Compound 1020], the pIC50 on PRMT5 [1] (read-out: No Cofactor/rel IC50) is 6.30 to 7.30; on PRMT5 [2], below 6.30; in assay [3], below 6.00; in assay [4] (setting [7]), 5.00 to 6.00; at PRMT5 [5], above 7.30; in assay [6] (setting [10]), 6.00 to 7.00. The MTAP intact/deleted ratio entry in assay [6] (setting [9]) is “A (an IC50 ratio greater than or equal to 10 fold)”.

Consider `C[C@@H]1CC[C@@H](c2ccc(CN3CCOCC3)cc2)N(C(=O)C(=O)Nc2cncc(C(N)=O)c2)C1` (racemic) [Compound 213], for which the pIC50 at PRMT5 [1] (read-out: No Cofactor/rel IC50) was 6.30 to 7.30; on PRMT5 [2] it was 6.30 to 7.30; in assay [3], below 6.00; in assay [4] (setting [7]), below 5.00; at PRMT5 [5], above 7.30; in assay [6] (setting [8]), 6.00 to 7.00. For the same molecule, the MTAP intact/deleted ratio entry in assay [6] (setting [9]) is on record as “A (an IC50 ratio greater than or equal to 10 fold)”.

As for `COc1ncc(NC(=O)C(=O)N2CCCCC2C2CCCC2)cc1C(N)=O` (single isomer, unassigned) [Compound 294, 5-(2-(2-cyclopentylpiperidin-1-yl)-2-oxoacetamido)-2-methoxynicotinamide], the pIC50 at PRMT5 [1] (read-out: No Cofactor/rel IC50) is 6.30 to 7.30; at PRMT5 [2], 6.30 to 7.30; in assay [3], below 6.00; in assay [4] (viability assay, MTAP-deleted cell line), 5.00 to 6.00; on PRMT5 [5], above 7.30; in assay [6] (setting [8]) it was above 7.00. Further, the MTAP intact/deleted ratio result in assay [6] (setting [9]) is recorded as “A (an IC50 ratio greater than or equal to 10 fold)”.
